# Laboratory results as given in patent US10111885B2, “Compositions and therapeutic methods for the treatment of complement-associated diseases” (Resverlogix Corp., priority 2015, dated 2018).
# What was measured:
# [1] = test system: Complement C3b; assay: SOMAscan protein quantitation in clinical samples, ASSURE trial; format: in vivo, human; conditions: 200 mg/day, week 26 vs. baseline
# Procedure: (§1) In this example, plasma samples from human subjects treated with placebo or RVX000222 are analyzed by the SOMAscan™ assay (SomaLogic). The method can be used to determine the effect of compounds, including those in the present invention, on the abundance of proteins, including complement components, in clinical samples. […] Using the SOMAscan™ technology, each sample is analyzed for the relative presence and amount of 1,310 different proteins. The changes in values for each protein analyte are calculated versus the baseline measure, and statistically significant (p<0.05) values are reported (Table 10). Downregulation of expression of components of the complement cascade will result in reduced activity of the pathway and thus will constitute a positive result.
# [2] = test system: Complement decay-accelerating factor; assay: as above; format: in vivo, human; conditions: 200 mg/day, week 26 vs. baseline
# Procedure: as §1
# [3] = test system: C5a anaphylatoxin; assay: as above; format: in vivo, human; conditions: 200 mg/day, week 26 vs. baseline
# Procedure: as §1
# [4] = test system: Complement C5; assay: as above; format: in vivo, human; conditions: 200 mg/day, week 26 vs. baseline
# Procedure: as §1
# [5] = test system: Complement component C8; assay: as above; format: in vivo, human; conditions: 200 mg/day, week 26 vs. baseline
# Procedure: as §1
# [6] = test system: Complement C1s subcomponent; assay: as above; format: in vivo, human; conditions: 200 mg/day, week 26 vs. baseline
# Procedure: as §1
# [7] = test system: CD59 mRNA; assay: Microarray analysis of ex-vivo treated human whole blood; format: cell-based; conditions: 20 uM, 24 h
# Procedure: (§2) In this example, RNA from human whole blood treated ex vivo was analyzed by microarray. The method can be used to determine the effect of compounds, including those in the present invention, on RNA levels (Table 6).
# (§3) After obtaining informed consent, whole blood was collected from three healthy volunteers into BD Vacutainer Sodium Heparin tubes and samples were inverted 10 times. Blood samples (1 mL) were combined with 1 mL of RPMI containing 2 mM glutamine, 100 U/mL penicillin, 100 ug/mL streptomycin, 20% FBS and the compound of interest or vehicle (0.1% DMSO), followed by a 24 h incubation at 37° C. Treated samples were transferred to a PAXgene RNA tube (PreAnalytix/Qiagen), inverted 5 times and frozen. RNA was isolated with the PAXgene RNA kit according to manufacturer's instructions. Microarray analysis was performed by Asuragen (Austin, Tex.) using the Affymetrix Human […]. Shown in Table 6 is the mean of 3 independent samples (p<0.01). Downregulation of expression of components of the complement cascade will result in reduced activity of the pathway and thus will constitute a positive result. Upregulation of negative regulators or downregulation of positive regulators of the pathway will also result in reduced activity of the pathway and thus will constitute a positive result.
# [8] = test system: CD55 mRNA; assay: as above; format: cell-based; conditions: 20 uM, 24 h
# Procedure: as §2, §3
# [9] = test system: Complement component 3 (C3) mRNA; assay: as above; format: cell-based; conditions: 20 uM, 24 h
# Procedure: as §2, §3
# [10] = test system: classical complement system hemolytic activity (sensitized sheep erythrocytes); assay: Total hemolytic complement (CH50) assay on clinical serum samples; format: in vivo, human; conditions: ASSURE trial, 26 weeks vs baseline
# Procedure: The method can be used to determine the effect of compounds, including those in the present invention, on the activity of the classical and alternative complement system in clinical samples. […] Using the CH50 screening assay to detect the hemolysis of sheep erythrocytes sensitized by specific antibodies, the hemolytic activity of the complement system in serum samples from treated and untreated subjects was measured. Likewise, using specific conditions to activate only the alternative pathway (AH50), activity of the complement response was measured. The degree of complement activation was measured at baseline and terminally to determine if there were any changes in the function of the complement system following drug treatment (FIG. 7). Reduced function of the complement system constitutes a positive result.
# [11] = test system: Complement component C8 beta chain; assay: Plasma protein quantitation by LC-MRM/MS, ASSURE trial; format: in vivo, human; conditions: week 26 vs. baseline
# Procedure: (§4) The method can be used to determine the effect of compounds, including those in the present invention, on the levels of various analytes found in plasma.
# (§5) Using mass spectrometric methods, including multiple reaction monitoring (MRM) mass spectrometry (MRM-MS), each sample is analyzed for the presence and amount of 43 different plasma proteins. The changes in values for each protein analyte are calculated versus the baseline measure, and statistically significant (p<0.05) and trending (0.10>p>0.05) values are reported (Table 9). Downregulation of expression of components of the complement cascade will result in reduced activity of the pathway and thus will constitute a positive result.
# [12] = test system: Complement factor B; assay: as above; format: in vivo, human; conditions: week 26 vs. baseline, trending p 0.06
# Procedure: as §4, §5
# [13] = test system: Complement C3; assay: as above; format: in vivo, human; conditions: week 26 vs. baseline
# Procedure: as §4, §5
# [14] = test system: Complement C5; assay: as above; format: in vivo, human; conditions: week 26 vs. baseline
# Procedure: as §4, §5
# [15] = test system: Complement C1r subcomponent; assay: as above; format: in vivo, human; conditions: week 26 vs. baseline
# Procedure: as §4, §5
# [16] = test system: Complement factor H; assay: as above; format: in vivo, human; conditions: week 26 vs. baseline
# Procedure: as §4, §5
# [17] = test system: Complement component C8 alpha chain; assay: as above; format: in vivo, human; conditions: week 26 vs. baseline
# Procedure: as §4, §5
# [18] = test system: Complement C4-B; assay: as above; format: in vivo, human; conditions: week 26 vs. baseline
# Procedure: as §4, §5
# [19] = test system: Complement component C9; assay: as above; format: in vivo, human; conditions: week 26 vs. baseline
# Procedure: as §4, §5
# [20] = test system: Complement factor I; assay: as above; format: in vivo, human; conditions: week 26 vs. baseline
# Procedure: as §4, §5
# [21] = test system: Complement Factor H - Related Protein 1 (CFHR1); assay: Multi-analyte profiling of plasma, ASSURE trial; format: in vivo, human; conditions: week 26 vs. baseline, N 17
# Procedure: (§6) In this example, plasma samples from human subjects treated with placebo or RVX000222 was analyzed by Multi-Analyte Profiling (MAP) technology. The method can be used to determine the effect of compounds, including those in the present invention, on the levels of various analytes in plasma (Table 8).
# [22] = test system: Complement C3 (C3); assay: Multi-analyte profiling of plasma, ASSURE trial; format: in vivo, human; conditions: week 26 vs. baseline, N 20
# Procedure: as §6
# [23] = test system: Complement Factor H (CFH); assay: Multi-analyte profiling of plasma, ASSURE trial; format: in vivo, human; conditions: week 26 vs. baseline, N 20
# Procedure: as §6
smiles,measurement,setting,value
"COc1cc(OC)c2c(=O)[nH]c(-c3cc(C)c(OCCO)c(C)c3)nc2c1 [RVX000222, 2-(4-(2-hydroxyethoxy)-3,5-dimethylphenyl)-5,7-dimethoxyquinazolin-4(3H)-one]",Complement C3b (C3) % change vs. baseline,[1],−52.7%
same,Complement decay-accelerating factor (CD55) % change vs. baseline,[2],−4.0%
same,C5a anaphylatoxin (C5) % change vs. baseline,[3],−28.7%
same,Complement C5 (C5) % change vs. baseline,[4],−11.7%
same,Complement component C8 (C8) % change vs. baseline,[5],−10.1%
same,Complement C1s subcomponent (C1S) % change vs. baseline,[6],−6.1%
same,CD59 % change in expression,[7],88%
same,CD55 % change in expression,[8],58%
same,Complement component 3 (C3) % change in expression,[9],−59%
same,"complement activity in clinical samples, CHSO assay (FIG. 7B)",[10],reduces complement activity
same,Complement component C8 beta chain Change from baseline,[11],-341 ng/mL
same,Complement component C8 beta chain Percent Change from baseline,[11],−3.9%
same,Complement factor B Change from baseline,[12],"−4,259 ng/mL"
same,Complement factor B Percent Change from baseline,[12],−4.2%
same,Complement C3 Change from baseline,[13],"−34,105 ng/mL"
same,Complement C3 Percent Change from baseline,[13],−3.6%
same,Complement C5 Change from baseline,[14],"−2,228 ng/mL"
same,Complement C5 Percent Change from baseline,[14],−5.3%
same,Complement C1r subcomponent Change from baseline,[15],-571 ng/mL
same,Complement C1r subcomponent Percent Change from baseline,[15],−3.6%
same,Complement factor H Change from baseline,[16],"−8,710 ng/mL"
same,Complement factor H Percent Change from baseline,[16],−4.2%
same,Complement component C8 alpha chain Change from baseline,[17],-120 ng/mL
same,Complement component C8 alpha chain Percent Change from baseline,[17],−8.6%
same,Complement C4-B Change from baseline,[18],"−7,492 ng/mL"
same,Complement C4-B Percent Change from baseline,[18],−4.3%
same,Complement component C9 Change from baseline,[19],"−5,034 ng/mL"
same,Complement component C9 Percent Change from baseline,[19],−13.8%
same,Complement factor I Change from baseline,[20],"−1,205 ng/mL"
same,Complement factor I Percent Change from baseline,[20],−5.2%
same,Complement Factor H - Related Protein 1 (CFHR1) Change from baseline,[21],-291.76 µg/mL
same,Complement Factor H - Related Protein 1 (CFHR1) Percent Change from baseline,[21],−10.75%
same,Complement C3 (C3) Change from baseline,[22],-0.1 mg/mL
same,Complement C3 (C3) Percent Change from baseline,[22],−9.28%
same,Complement Factor H (CFH) Change from baseline,[23],-75.35 µg/mL
same,Complement Factor H (CFH) Percent Change from baseline,[23],−11.45%
